The results in this text go back to PubChem BioAssay AID248 (DTP/NCI, 2004).

Several values for one entry are separate records, joined by “and”; a condition that tells them apart may be missing. Equal entries are not always repeated. Toxic doses and inconclusive results are not listed.

The test system of this assay is L1210 leukemia ip in BDF1 mice, survival T/C. In words: NCI In Vivo Anticancer Drug Screen. Data for tumor model L1210 Leukemia (intraperitoneal) in B6D2F1 (BDF1) mice. As to conditions: endpoint: mean survival time, higher = longer survival. Put shortly:
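Mice bearing the transplanted tumor received compound or vehicle. Survival of the treated group was divided by that of the vehicle-treated control group to give the ratio.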

Setting [1] is: dose: 100.0 mg/kg/injection, schedule: Q04DX003 (ip), vehicle: Klucel (hydroxypropylcellulose) (HPC).
Where [2] appears, read: dose: 200.0 mg/kg/injection, schedule: Q04DX003 (ip), vehicle: Klucel (hydroxypropylcellulose) (HPC).
Where [3] appears, read: dose: 100.0 mg/kg/injection, schedule: Q01DX009 (ip), vehicle: saline.
Setting [4] is: dose: 100.0 mg/kg/injection, schedule: Q04DX003 (ip), vehicle: saline.
Where [5] appears, read: dose: 200.0 mg/kg/injection, schedule: Q01DX009 (ip), vehicle: saline.
Where [6] appears, read: dose: 200.0 mg/kg/injection, schedule: Q04DX003 (ip), vehicle: saline.
Setting [7] is: dose: 400.0 mg/kg/injection, schedule: Q04DX003 (ip), vehicle: saline.
The mark [8] stands for this setting: dose: 100.0 mg/kg/injection, schedule: Q04DX002 (ip), vehicle: Klucel (hydroxypropylcellulose) (HPC).
Setting [9] is: dose: 200.0 mg/kg/injection, schedule: Q04DX002 (ip), vehicle: Klucel (hydroxypropylcellulose) (HPC).
[10] abbreviates: dose: 400.0 mg/kg/injection, schedule: Q04DX002 (ip), vehicle: Klucel (hydroxypropylcellulose) (HPC).
Where [11] appears, read: dose: 100.0 mg/kg/injection, schedule: Q01DX009 (ip), vehicle: Klucel (hydroxypropylcellulose) (HPC).

Take `O=C(O)CCNc1ccccc1C(=O)O`: the T/C reads like this: (dose: 100.0 mg/kg/injection, schedule: Q01DX001 (ip), vehicle: carboxymethylcellulose (CMC)) 100 % of control; (dose: 200.0 mg/kg/injection, schedule: Q01DX001 (ip), vehicle: carboxymethylcellulose (CMC)) 96 % of control; (dose: 400.0 mg/kg/injection, schedule: Q01DX001 (ip), vehicle: carboxymethylcellulose (CMC)) 100 % of control.
On to `CC(CCOC(=O)c1ccccc1)OC(=O)c1ccccc1` (configuration not stated), for which the T/C is 92 % of control (dose: 100.0 mg/kg/injection, schedule: Q01DX001 (ip), vehicle: saline); 121 % of control (dose: 200.0 mg/kg/injection, schedule: Q01DX001 (ip), vehicle: saline); 105 % of control (dose: 400.0 mg/kg/injection, schedule: Q01DX001 (ip), vehicle: saline).
As for `O=C(OC12CCCCC1CCCC2)c1ccc([N+](=O)[O-])cc1` (configuration not stated), the T/C runs as follows: under setting [1], 96 % of control; (dose: 200.0 mg/kg/injection, schedule: Q01DX009 (ip), vehicle: saline with Tween-80) 90 % of control; under setting [2], 101 % of control; (dose: 400.0 mg/kg/injection, schedule: Q04DX003 (ip), vehicle: Klucel (hydroxypropylcellulose) (HPC)) 96 % of control.
`O=c1ccc([N+](=O)[O-])c[nH]1`: the T/C reads like this: under setting [3], 97 % of control and 93 % of control; under setting [4], 105 % of control; under setting [5], 101 % of control and 100 % of control; under setting [6], 96 % of control and 103 % of control; (dose: 400.0 mg/kg/injection, schedule: Q01DX009 (ip), vehicle: saline) 105 % of control and 95 % of control; under setting [7], 94 % of control and 96 % of control.
As for `C=CCC1(/C(=C\CC)CCC)C(=O)NC(=O)NC1=O`, the T/C (dose: 75.0 mg/kg/injection, schedule: Q01DX001 (ip), vehicle: saline) was 96 % of control.
As for `CCc1cc2oc(C)c(C)c2c(N=Nc2cccc([N+](=O)[O-])c2)c1O`, the T/C reads like this: under setting [8], 96 % of control; under setting [9], 96 % of control; under setting [10], 93 % of control.
Take `OCCOCCN1CCN(C(c2ccccc2)c2ccc(Cl)cc2)CC1` (configuration not stated): the T/C is 103 % of control (dose: 12.5 mg/kg/injection, schedule: Q01DX009 (ip), vehicle: saline); 103 % of control (dose: 25.0 mg/kg/injection, schedule: Q01DX009 (ip), vehicle: saline); 109 % of control (dose: 25.0 mg/kg/injection, schedule: Q04DX003 (ip), vehicle: saline); 103 % of control (dose: 50.0 mg/kg/injection, schedule: Q01DX009 (ip), vehicle: saline); 96 % of control (dose: 50.0 mg/kg/injection, schedule: Q04DX003 (ip), vehicle: saline); 103 % of control under setting [3]. Further, the T/C is 93 % of control under setting [4] and 90 % of control under setting [6].
As for `O=NN(CCCl)C(=O)Nc1ccc2c(c1)Cc1ccccc1-2`, the T/C was 156 % of control (dose: 10.0 mg/kg/injection, schedule: Q01DX009 (ip), vehicle: other); 167 % of control (dose: 20.0 mg/kg/injection, schedule: Q01DX009 (ip), vehicle: other); 113 % of control (dose: 40.0 mg/kg/injection, schedule: Q01DX009 (ip), vehicle: other); 164 % of control (dose: 44.0 mg/kg/injection, schedule: Q01DX009 (ip), vehicle: carboxymethylcellulose (CMC)); 208 % of control (dose: 66.0 mg/kg/injection, schedule: Q01DX009 (ip), vehicle: carboxymethylcellulose (CMC)); 175 % of control (dose: 100.0 mg/kg/injection, schedule: Q01DX009 (ip), vehicle: carboxymethylcellulose (CMC)). Moreover, the T/C by setting is: (dose: 150.0 mg/kg/injection, schedule: Q01DX009 (ip), vehicle: carboxymethylcellulose (CMC)) 96 % of control; (dose: 300.0 mg/kg/injection, schedule: Q01DX001 (ip), vehicle: carboxymethylcellulose (CMC)) 102 % of control.
Take `Cn1nc(C(=O)O)c2c(N)ncnc21`: the T/C was 103 % of control (dose: 50.0 mg/kg/injection, schedule: Q04DX002 (ip), vehicle: saline); 95 % of control (dose: 100.0 mg/kg/injection, schedule: Q04DX002 (ip), vehicle: saline); 98 % of control (dose: 200.0 mg/kg/injection, schedule: Q04DX002 (ip), vehicle: saline).
Turning to `CCCCCC(C1=NC(C)(C)CC(C)O1)c1ccccc1` (configuration not stated), the T/C by setting is: under setting [3], 103 % of control; (dose: 100.0 mg/kg/injection, schedule: Q04DX003 (ip), vehicle: saline sonified) 103 % of control; under setting [5], 113 % of control; (dose: 200.0 mg/kg/injection, schedule: Q04DX003 (ip), vehicle: saline sonified) 117 % of control; (dose: 400.0 mg/kg/injection, schedule: Q04DX003 (ip), vehicle: saline sonified) 105 % of control.
For `CCOC(=O)N1c2ccccc2C=CC1/C(N)=N/O` (configuration not stated), the T/C is, setting by setting: (dose: 50.0 mg/kg/injection, schedule: Q01DX009 (ip), vehicle: Klucel (hydroxypropylcellulose) (HPC)) 95 % of control; under setting [11], 89 % of control; under setting [1], 97 % of control; under setting [2], 91 % of control.
Regarding `CCOc1ccc(Br)cc1/C=N\NC(=O)c1ccccc1N(C)C`, the T/C by setting is: (dose: 100.0 mg/kg/injection, schedule: Q04DX002 (ip), vehicle: gum acacia) 90 % of control; (dose: 200.0 mg/kg/injection, schedule: Q04DX002 (ip), vehicle: gum acacia) 100 % of control; (dose: 400.0 mg/kg/injection, schedule: Q04DX002 (ip), vehicle: gum acacia) 90 % of control.
Regarding `OC12Cc3ccccc3C1=NN(c1ccccc1)C2c1ccccc1` (configuration not stated), the T/C (dose: 25.0 mg/kg/injection, schedule: Q01DX009 (ip), vehicle: saline with Tween-80) was 101 % of control; the T/C (dose: 50.0 mg/kg/injection, schedule: Q01DX009 (ip), vehicle: saline with Tween-80) was 104 % of control; the T/C (dose: 100.0 mg/kg/injection, schedule: Q01DX009 (ip), vehicle: saline with Tween-80) is 90 % of control; the T/C (dose: 100.0 mg/kg/injection, schedule: Q04DX003 (ip), vehicle: saline with Tween-80) is 93 % of control; the T/C (dose: 200.0 mg/kg/injection, schedule: Q04DX003 (ip), vehicle: saline with Tween-80) is 97 % of control; the T/C (dose: 400.0 mg/kg/injection, schedule: Q04DX003 (ip), vehicle: saline with Tween-80) is 91 % of control.
Take `CCCCN1C(=O)C(=O)N(c2ccccc2C(F)(F)F)C1=O`: the T/C is 106 % of control and 88 % of control under setting [11]; 94 % of control and 105 % of control under setting [8]; 106 % of control (dose: 200.0 mg/kg/injection, schedule: Q01DX009 (ip), vehicle: Klucel (hydroxypropylcellulose) (HPC)); 101 % of control and 90 % of control under setting [9]; 107 % of control (dose: 400.0 mg/kg/injection, schedule: Q01DX009 (ip), vehicle: Klucel (hydroxypropylcellulose) (HPC)); 94 % of control and 116 % of control under setting [10].
On to `O=C1C=CC(=O)N1c1ccccc1[N+](=O)[O-]`, for which the T/C is 97 % of control (dose: 1.5 mg/kg/injection, schedule: Q01DX009 (ip), vehicle: Klucel (hydroxypropylcellulose) (HPC)); 103 % of control (dose: 3.0 mg/kg/injection, schedule: Q01DX009 (ip), vehicle: Klucel (hydroxypropylcellulose) (HPC)); 94 % of control (dose: 6.0 mg/kg/injection, schedule: Q01DX009 (ip), vehicle: Klucel (hydroxypropylcellulose) (HPC)).
In the case of `O=C(COc1ccc(Cl)cc1Cl)Nc1ccc(S(=O)(=O)O)cc1`, the T/C by setting is: under setting [8], 92 % of control; under setting [9], 111 % of control; under setting [10], 103 % of control.
As for `O=C(c1ccc(Cl)c(Cl)c1)n1c2ccccc2c2ccccc21`, the T/C by setting is: under setting [4], 102 % of control; under setting [6], 100 % of control; under setting [7], 100 % of control.
For the compound `CCCCCCCCSCCCCCCCCCCCSCCCCCCCC`, the T/C (dose: 100.0 mg/kg/injection, schedule: Q01DX001 (ip), vehicle: Klucel (hydroxypropylcellulose) (HPC)) was 102 % of control and the T/C (dose: 200.0 mg/kg/injection, schedule: Q01DX001 (ip), vehicle: Klucel (hydroxypropylcellulose) (HPC)) was 92 % of control.
On to `CN(C)CCCNc1c2ccccc2nc2cccc([N+](=O)[O-])c12`, for which the T/C is 100 % of control (dose: 0.2 mg/kg/injection, schedule: Q04DX003 (ip), vehicle: saline); 94 % of control (dose: 0.3 mg/kg/injection, schedule: Q04DX003 (ip), vehicle: saline); 108 % of control (dose: 0.5 mg/kg/injection, schedule: Q04DX003 (ip), vehicle: saline).
